Assay results: US20190008810A1, “METHOD FOR PREVENTION, TREATMENT AND ALLEVIATION OF INFECTIOUS DISEASES AND DISORDERS” (REPLICON HEALTH OY, priority 2016, published 2019)

Experiments:
CRP [1] = assay: Blood CRP in continuous IPA/Dry Eye disease model; type: in vivo, mice
Protocol: Tear volume was measured for groups 3 and 4 and later comparison results for group 2 were received. The blood samples were collected from saphenous vein on day 5 (prior the treatment) and on day 7, just prior anesthesia and during the perfusion (cardiac puncture). On day 7, the animals were terminally anesthetized and transcardially perfused. Plasma was separated in all collected blood samples and kept frozen at −80° C. until the measurements. CRP measurements were performed using mouse CRP ELISA kit. […] In addition, animals were monitored daily for general health status. The lacrimal glands were embedded into paraffin, sectioned, stained and analyzed for possible pathology.
In this Example, CRP results from 3 separate preclinical tests are presented and analyzed. […] CRP present in mouse serum samples were analyzed using mouse CRP ELISA kit (GWB-3B960E, Genway Biotech Inc.). […]
In two other CRP tests, the effect of the DGA Activation in two disease models, continuous vs. discontinuous was analyzed. […] Logarithmic change of blood CRP during the 7-day disease follow up period of each mouse in all groups was calculated and the averages are presented in FIGS. 4b and 4c. […]
Brief description of the disease models: 1) continuous IPA -model (see Example 1a) and 2) discontinuous MPTP/PD -model. […] Diet consumption per cage is monitored carefully before and during the study follow-up period. […]

CRP [2] = assay: Blood CRP in healthy mice, 4-day test; type: in vivo; conditions: 65 mg/kg/day in chow, 4 days, N=8; pairwise one-sided t-test p-value=0.04
Protocol: In this Example, CRP results from 3 separate preclinical tests are presented and analyzed. First 4-day CRP test was conducted with 8 healthy mice using individuals as their own controls. Second 7-day CRP test was conducted in discontinuous disease model. And third also 7-day CRP test was conducted in continuous disease model. CRP present in mouse serum samples were analyzed using mouse CRP ELISA kit (GWB-3B960E, Genway Biotech Inc.). All blood samples were collected at the same time of the day.
For evaluating possible effect of the DGA Activation in health, a 4-day test with healthy mice in Charles River Labs, Kuopio test facilities were conducted. In this test (prior initiation of the MPTP -model) the DGA was mixed into chow at the concentration of 65 mg/kg/day.

[3] = tested on: HO-1, GRHPR, PGC-1a and NRF1 pathway genes; assay: Gene expression in peripheral leukocytes after 4.5-day administration, Example 5b; type: in vivo, human
Protocol: FIG. 13a: In this 4.5-day experiment samples of peripheral leukocytes were collected from standard blood sample of S1 and S9 in fasting condition (0 h), and 1 hour (1 h) after taking 75 grams of glucose (Glutole, Biofile Pharma, 330 ml) for glucose tolerance test. After the collection of the blood samples the leukocytes were immediately separated, and after separation immediately lysed by stop solution and stored in freezer in line with the instructions by the service provider.
Gene expression was measured from those peripheral leukocyte (=white blood cells). Additionally, basal (=0-Control) gene expression of all genes was later measured for S1. This was done using a different gene expression method for genome wide sequencing.
The doses used were 250 mg taken twice a day, in the morning and before going to bed. The last DGA dose was double in size (some 8 mg/kg), and it was taken in the same morning as the collection of blood samples. Relatively high dose and 2.5 hours to measurement was chosen to see clearer dose response in gene expression from peripheral leukocytes.
In the FIG. 13a it is shown that UTPfsAEM gene expressions are activated markedly in peripheral leukocytes after 4.5 day DGA Activation compared to 0-control. The analysis of selected genes was conducted both in fasting conditions and 1 h after glucose intake (“fed” in FIG. 13a)) and in acute dosing, i.e. only 2.5 hours from last DGA dose.

[4] = tested on: acute upper respiratory infection (nose and throat); assay: Healing from acute upper respiratory infection in S1, Example 1c; type: in vivo, human
From the text: After successful healing process in November 2014 (Example 1b), S1 was almost excited when they got acute upper respiratory infection when traveling abroad around New Year 2015. Symptoms: a virus infection in throat and rhinitis had lasted for three days before initiation of the DGA activation. S1 felt also feverish during this three-day period (unfortunately there was no thermometer around during the travel).
Administration on the fourth day of the infection: In the morning at 0940 am S1 took 2×250 mg of D-glyceric acid calcium salt dehydrate mixed into the water. Now, swelling and aching of the throat was quite substantial like had been the case already on the previous night, also some fever was felt.
At 0330 pm S1 took 2×180 mg of D-glyceric acid calcium salt mixed into water to keep the DGA Activation alive. Swelling had reduced a little but this could be due to circadian variation. Third dose of the day (2×180 mg) was received at 0915 pm. Throat continued to feel better towards the night, alleviation of the symptoms compared to the morning and to the previous night was significant.
Next morning at 0715 1×200 mg was received. […] However, some swelling in the throat remained but no pain. On top of the DGA Activation 1×500 mg of paracetamol was received at 0840 am, mimicking combination medication like e.g. Tylenol Cold.
Second 1×200 mg dose was received at 0200 pm. […]

SMILES: O=C(O)[C@H](O)CO [DGA, D-glyceric acid]
- survival and health parameters (CRP [1]; 4+7-day administration): improved survival and health parameters
- blood CRP change vs 0-control (CRP [1]; 7-day IPA after 4-day priming, p-value=0.027): increased statistically significantly
- blood CRP vs own starting level (CRP [2]): overall decline in CRP was statistically significant
- GRHPR gene expression ([3]; fasting and fed, after 4.5 days): upregulated very significantly
- HO-1 gene expression ([3]; fasting and fed, after 4.5 days, 2.5 hours from last dose): upregulated very significantly
- genes related to PGC-1a and NRF1 pathways ([3]; fasting, after 4.5 days vs 0-control): activated statistically very significantly
- increase of HO-1 expression ([3]; peripheral leukocytes in vivo): more than 100%
- fever next morning ([4]; S1, morning after first day of dosing): No fever was observed
- time to conquer the acute upper respiratory infection ([4]; S1, started on fourth day of infection, 2×250 mg then 2×180 mg doses): 12 to 48 h
